Laboratory results: patent US20030125285A1, “Method of examining efficacy of therapy with nucleic acid” (priority 2001, published 2003)

Legend:
[1] = biological target: T1, protein of SEQ ID NO: 1 (AK002169) (Homo sapiens, UniProt Q96SI9); assay: Detection of binding of radio-labeled poly(I)•poly(C) to phage cDNA library proteins on nitrocellulose membrane; details: [32P]-poly(I)•poly(C) 1 ng/ml-1 μg/ml, chain length 100-500 bp, 42° C., 5-6 hours
T1 construct: made in house
Method: (§1) Detection of Binding Ability to Proteins of SEQ ID NO: 1-3
(§2) (1) Each protein was synthesized by plating phages containing cDNA on a petri dish using human HeLa 5′-STRETCH PLUS cDNA library.
(§3) (2) The synthesized protein was transferred to nitrocellulose membrane.
(§4) (3) To the nitrocellulose membrane was added the following test solution containing poly(I)•poly(C) (chain length 100-500 bp) radio-labeled with [γ-^32P]ATP, and subjected to hybridization at 42° C., for 5-6 hours.
(§5) 1 ng/ml-1 μg/ml [^32P]-poly(I)•poly(C)
(§6) The nucleotide sequence of cDNA corresponding to the screened protein was determined with a sequencer to identify the screened protein.

[2] = biological target: T2, protein of SEQ ID NO: 2 (human TAR RNA binding protein 2, TRBP2) (Homo sapiens, UniProt Q15633); assay: as above; details: [32P]-poly(I)•poly(C) 1 ng/ml-1 μg/ml, chain length 100-500 bp, 42° C., 5-6 hours
T2 construct: made in house
T2 sequence (Q15633 1-366): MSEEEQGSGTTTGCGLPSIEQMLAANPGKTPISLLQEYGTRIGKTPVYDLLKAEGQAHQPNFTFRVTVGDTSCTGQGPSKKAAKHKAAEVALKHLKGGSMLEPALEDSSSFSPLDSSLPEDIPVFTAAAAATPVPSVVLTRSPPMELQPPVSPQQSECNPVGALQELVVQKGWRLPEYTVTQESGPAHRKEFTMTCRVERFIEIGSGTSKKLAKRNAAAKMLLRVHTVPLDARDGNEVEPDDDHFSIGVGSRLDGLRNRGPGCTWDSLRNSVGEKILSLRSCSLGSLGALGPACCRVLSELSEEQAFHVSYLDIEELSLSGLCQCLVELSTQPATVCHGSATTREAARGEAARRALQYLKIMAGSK
Method: as §1, §2, §3, §4, §5, §6

[3] = biological target: T3, protein of SEQ ID NO: 3 (human TRAL) (Homo sapiens, UniProt P14625); assay: as above; details: [32P]-poly(I)•poly(C) 1 ng/ml-1 μg/ml, chain length 100-500 bp, 42° C., 5-6 hours
T3 construct: made in house
Method: as §1, §2, §3, §4, §5, §6

HeLaS3 cancer cells = details: Cancer Research, 59, pp. 4325-4333 (1999); cited from earlier work
A431 cancer cells = details: Cancer Research, 59, pp. 4325-4333 (1999); cited from earlier work
HeLa cancer cells = details: Cancer Research, 59, pp. 4325-4333 (1999); cited from earlier work
SW620 cancer cells = details: Cancer Research, 59, pp. 4325-4333 (1999); cited from earlier work

T3 sequence (P14625 22-803): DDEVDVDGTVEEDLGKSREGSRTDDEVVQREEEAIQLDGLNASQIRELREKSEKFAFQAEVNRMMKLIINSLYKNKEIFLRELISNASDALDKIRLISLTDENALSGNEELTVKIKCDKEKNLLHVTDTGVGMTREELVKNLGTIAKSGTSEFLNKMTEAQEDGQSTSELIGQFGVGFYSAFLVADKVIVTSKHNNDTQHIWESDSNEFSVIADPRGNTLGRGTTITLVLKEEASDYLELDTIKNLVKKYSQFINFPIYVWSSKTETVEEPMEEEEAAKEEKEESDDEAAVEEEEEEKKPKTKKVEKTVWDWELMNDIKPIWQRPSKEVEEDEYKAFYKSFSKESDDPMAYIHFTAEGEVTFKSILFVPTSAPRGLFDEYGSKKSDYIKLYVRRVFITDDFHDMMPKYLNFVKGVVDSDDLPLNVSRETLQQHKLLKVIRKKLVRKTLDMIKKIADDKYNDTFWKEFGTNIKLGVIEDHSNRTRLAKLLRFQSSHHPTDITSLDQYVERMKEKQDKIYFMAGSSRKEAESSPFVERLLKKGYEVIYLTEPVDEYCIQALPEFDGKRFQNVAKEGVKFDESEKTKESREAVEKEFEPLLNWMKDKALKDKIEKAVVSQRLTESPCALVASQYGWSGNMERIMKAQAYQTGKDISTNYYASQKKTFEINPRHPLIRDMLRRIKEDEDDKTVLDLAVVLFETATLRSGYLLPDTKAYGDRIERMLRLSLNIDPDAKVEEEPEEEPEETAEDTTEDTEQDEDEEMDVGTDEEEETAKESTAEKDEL
T1 sequence (Q96SI9 183-672): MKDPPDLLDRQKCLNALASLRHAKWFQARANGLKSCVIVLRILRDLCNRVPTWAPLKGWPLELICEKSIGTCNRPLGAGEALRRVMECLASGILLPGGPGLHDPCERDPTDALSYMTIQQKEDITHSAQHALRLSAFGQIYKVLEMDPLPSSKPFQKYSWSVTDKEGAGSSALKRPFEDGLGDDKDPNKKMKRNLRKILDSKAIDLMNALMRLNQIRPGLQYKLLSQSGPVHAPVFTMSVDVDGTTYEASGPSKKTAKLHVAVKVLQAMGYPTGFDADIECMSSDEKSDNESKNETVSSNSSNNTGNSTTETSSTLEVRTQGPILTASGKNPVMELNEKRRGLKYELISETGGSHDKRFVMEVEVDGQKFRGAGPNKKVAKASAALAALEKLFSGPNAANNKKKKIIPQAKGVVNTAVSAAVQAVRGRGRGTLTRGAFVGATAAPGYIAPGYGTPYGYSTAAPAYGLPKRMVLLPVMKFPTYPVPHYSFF

In the case of “polyinosinic acid-polycytidylic acid [poly(I)•poly(C)]”, the “binding to protein of SEQ ID NO: 1” value [1] is reported as “bound”, the “binding to protein of SEQ ID NO: 2” value [2] is reported as “bound” and the “binding to protein of SEQ ID NO: 3” value [3] is reported as “bound”. For the same substance, the “efficacy against cancer cells” value (HeLaS3 cancer cells) was “efficacious”, the “efficacy against cancer cells” value (A431 cancer cells) was “efficacious” and the “efficacy against cancer cells” value (HeLa cancer cells) was “inefficacious”. The “efficacy against cancer cells” value (SW620 cancer cells) was “inefficacious”.
